# In US6897065B1, “Method for maturation of conifer somatic embryos” (Woody Plant Biotech APS, priority 1999, dated 2005):
# How the values were obtained:
# [1] = test system: embryogenic cell lines of Abies nordmanniana; test: Maturation of the tested established Abies nordmanniana embryogenic cell lines (G.3.8, G.35.8, G.78.14); format: cell-based
# Text: (§1) Three different cell lines of Abies nordmanniana were used in the present study. The tested cell lines have been in continuous culture for several years. The cell line G.3.8 was initiated from an immature zygotic embryo in 1989 on half strength MS medium (Murashige and Skoog, 1962) as described previously (Nørgaard and Krogstrup, 1991), Cell line G.35.8 was initiated from a mature zygotic embryo on SH medium in 1991 (Nørgaard and Krogstrup, 1995), and cell line G.78.14 was initiated in 1993 from an immature zygotic embryo on modified half strength BLG medium (Verhagen and Wann, 1989). From 1996, all cultures were maintained by biweekly subculture onto fresh half strength modified BLG medium and grown at 24+/−1° C. in the dark. Cell lines G.3.8 and G.78.14 proliferated fast on maintenance medium with a doubling time of the weight shorter than 2 weeks. Cell line G.35.8 proliferated relatively slowly with a doubling time of the weight higher than 2 weeks.
# (§2) The standard maturation medium (the control) is modified from the half strength BLG proliferation medium mentioned above. […] The choice of these three culture medium components is determined primarily by the conifer species in question. […] Similarly it is known that addition of PEG-4000 improves maturation. Still it may be possible to obtain just as good results with other combinations of these components and also by using other components with equivalent effects.
# (§3) In this experiment, the standard maturation medium was modified by excluding PEG and by including one of the following 3 chemicals, that are traditionally expected to affect the endogenous concentration of the naturally occurring auxin IAA or to affect the normal effect of auxin in plant cells: 1) PCIB (auxin-antagonist) in a concentration of 25 or 117 μM, 2) TIBA (auxin transport inhibitor) in a concentration of 5 or 50 μM, 3) phlouroglucinol: (inhibitor of auxin degradation) (see George 1993, page 429 bottom-430) in a concentration of 30 mM. In addition to these modifications the standard maturation medium was modified by: 4) reducing the concentration of boron (precursor of indole acetic acid synthesis) to 10 μM, i.e. 20% of the normal concentration and finally by 5) including 25 μM PCIB in medium with no ABA.
# (§4) The cultures were matured in the dark at 24° C.+/−1° C.
# Two weeks after the last subculture, 4 grams of embryogenic cells was transferred to a 250 mL Flask (Blue cap) together with a magnet stirrer. 100 mL of liquid proliferation medium was added, and the suspension was stirred for 5 minutes at high speed on a magnet stirrer to obtain a homogenous suspension of cells and cell clumps. The culture was then pre-cultured on a gyrotory shaker (120 rpm) for one week at 24+/−1° C. in the dark. Following the pre-culture, the culture was stirred again on a magnet stirrer at high speed for 5 minutes. The culture was transferred to a 100 mL measuring cylinder and allowed to settle for 30 min. The supernatant was discharged and from the remaining culture aliquots of 1 mL were transferred with a cut pipette tip onto filter paper (Whatmann #2) placed on 25 mL of maturation medium in 10 cm Petri dishes (Nunc, Denmark). The filters containing the maturing somatic cultures were transferred onto fresh medium every 2 weeks.
# FIG. 5 discloses maturation of cell line G.78.14. This cell line proliferates rapidly and produces very few normal mature embryos according to prior methods. The cell line was matured for 20 weeks on medium comprising 40 μM ABA and a) 25 μM PCIB, b) 0.4 mM phloroglucinol, or c) reduced concentration of Boron (20% of normal concentration). For control see FIG. 1a or 2a.
# FIG. 6 discloses maturation of cell line G.78.14 for 20 weeks on maturation medium comprising 40 μM ABA and a) 2.5 mg/L TIBA (5 μM), or b) 25 mg/L TIBA (50 μM).
# [2] = test system: Abies nordmanniana cell lines; test: Maturation of Abies nordmanniana cell lines with different carbohydrate sources (shift from maltose to sucrose); format: cell-based; conditions: for development of mature embryos: 45 g/L as sole carbohydrate source during the entire maturation period (treatments A, B)
# Procedure: Except from the carbohydrates, the basic maturation medium was composed as described for the control in example 1. However, PCIB was included in a prior determined optimum concentration and period for each of the tested cell lines. Four treatments with different combinations of carbohydrates were tested during maturation: • A) Maturation on culture medium comprising 45 g/L sucrose as carbohydrate source during the entire maturation period. • B) Maturation on culture medium comprising 45 g/L maltose as carbohydrate source during the entire maturation period. Typical embryo from the treatment is disclosed in the left picture of FIG. 9. • C) Maturation on culture medium with 45 g/L maltose during the first part of the maturation period, followed by a shift to maturation medium comprising 22.5 g/L sucrose and 22.5 g/L maltose during the last two weeks of the maturation period. Typical embryo from the treatment is disclosed in the right picture of FIG. 9. • D) Maturation on culture medium with 45 g/L maltose during the first part of the maturation period, followed by a shift to maturation medium comprising 45 g/L sucrose as carbohydrate source for the last two weeks of the maturation period. Typical embryo from the treatment is disclosed in the center picture of FIG. 9. Results
# [3] = test system: Abies nordmanniana cell line G.3.8; test: Maturation of established Abies nordmanniana cell line G.3.8 (fast proliferating); format: cell-based
# Text: as §1, §2, §3, §4
# Two weeks after the last subculture, 4 grams of embryogenic cells was transferred to a 250 mL Flask (Blue cap) together with a magnet stirrer. 100 mL of liquid proliferation medium was added, and the suspension was stirred for 5 minutes at high speed on a magnet stirrer to obtain a homogenous suspension of cells and cell clumps. The culture was then pre-cultured on a gyrotory shaker (120 rpm) for one week at 24+/−1° C. in the dark. […]
# [4] = test system: Abies nordmanniana cell line G.35.8; test: Maturation of established Abies nordmanniana cell line G.35.8 (slowly proliferating); format: cell-based
# Text: as §1
# The standard maturation medium (the control) is modified from the half strength BLG proliferation medium mentioned above. […] The choice of these three culture medium components is determined primarily by the conifer species in question. […] Similarly it is known that addition of PEG-4000 improves maturation. […]
# [5] = test system: mature somatic embryos of Abies nordmanniana; test: Germination of mature somatic embryos; conditions: embryos matured with PCIB in the maturation medium
# Procedure: Well-developed mature embryos were collected for cold treatment after about 20 weeks of maturation. The isolated mature embryos were transferred to a nylon filter that was placed on a foam rubber pad in a high Petri dish. A wetted filter paper was placed in the bottom and in the lid of the Petri dish. The Petri dish was closed, sealed with two rounds of polyethylene film, wrapped with aluminium foil, and then placed at 5° C. in the dark for 4 weeks for cold treatment. After cold treatment, the nylon filter with the mature embryos was transferred to BGM-2 medium (Krogstrup et al, 1988). The BGM-2 medium included 20 g/L sucrose, 10 g/L activated charcoal (Merck 5411), and was galled with 3.5 g/L Phytagel (Gellan gum). The Petri dishes were placed in a growth room at 20° C. with a 16 hour photoperiod. After one week of germination, the nylon net was removed and the embryos were placed in direct contact with the medium. After two weeks of germination, embryos with a root were placed vertically with the root submerged in the medium. Later, the germinating embryos were transferred to soil and placed in a controlled greenhouse.
# [6] = test system: newly established Abies nordmanniana embryogenic cell lines; test: Maturation in newly established Abies nordmanniana embryogenic cultures; format: cell-based; conditions: 8 weeks maturation, 40 μM ABA and 25 μM PCIB from week 2 to 4; cell lines less than 6 months old
# Procedure: Approximately 50 cell lines were initiated from mature seeds in the same way as cell line G.78.14 (Example 1). The cultures were initiated and maintained on modified half strength BLG medium (See example 1). The cultures were less than 6 months old when they were subjected to maturation. The cultures were plated as described in Example 1. The cultures were subjected to two different maturation protocols. • 1) Maturation for 8 weeks on culture medium comprising 40 μM ABA and 5% PEG-4000. • 2) Maturation for as 1) but from week 2 to 4 the cultures were on culture medium comprising 40 μM ABA and 25 μM PCIB.
# [7] = test system: Picea abies embryogenic cell lines D.2.9, D.4.1, D.7.1; test: Maturation in embryogenic cultures of Picea abies; format: cell-based
# Procedure: Three embryogenic cell lines, D.2.9, D.4.1, D.7.1, of Picea abies, initiated from immature seeds in 1989 and kept in cryostorage until 1998 as described by Nørgaard et al (1993) were used for the present experiment. The cultures were maintained on semi-solid proliferation medium BMI-S1 (Krogstrup 1986) gelled with 1.8 g/L gelrite by biweekly sub-cultures. Prior to transfer to maturation medium, 4 grams of cell mass from each cell line was weighed off and transferred to 50 ml liquid proliferation medium in a 250 ml Erlenmeyer flask. The flask also contained a sterile magnet.
# To disintegrate the cultures they were stirred for 5 minutes using a magnet stirrer. Then the flasks were shaken for 15 minutes on a rotary shaker at 175 rpm. The medium with suspended cell aggregates were subsequently poured into a 100 ml measuring cylinder and allowed to settle for 30 minutes. The supernatant was discarded and aliquots of 1 ml of cells were plated on sterile Whatman #54 paper discs placed an the various maturation media. Three replicate dishes were made for each combination of cell line and treatment.
# Five maturation protocols were tested. • A: Maturation on BMG-1 medium (Krogstrup et al 1988) modified by increasing the ABA concentration to 40 μM. • B: As A, but from week 2 to week 4 maturation on culture medium comprising 2.5 μM PCIB and 40 μM ABA. • C: As A, but from week 2 to week 4 maturation on culture medium comprising 5.0 μM PCIB and 40 μM ABA. • D: Maturation on medium comprising 2.5 μM PCIB and 40 μM ABA. • E: Maturation an medium comprising 5.0 μM PCIB and 40 μM ABA. Results
# [8] = test system: Picea sitchensis cell lines G.1.12, G.1.13; test: Maturation in embryogenic cultures of Picea sitchensis; format: cell-based; conditions: anti-auxin step as for Picea abies
# Procedure: Two cell lines of Picea sitchensis, G.1.12, G.1.13, initiated from cotyledons from mature embryos were used for the present study. The cultures were initiated and pretreated on BMI-S1 medium as above, but with 1000 mg/L casein hydrolysate and 10 μM 2,4-D. Pretreatment, maturation medium and anti-auxin step as for Picea abies.
# [9] = 25 μM PCIB + 40 μM ABA from week 4 to 8 of the 20 week maturation period
# [10] = medium including both ABA and 25 μM PCIB
compound,measurement,setting,value
Oc1cc(O)cc(O)c1 [phloroglucinol],proliferation during maturation,[1]; phloroglucinol 0.4 mM + 40 μM ABA,proliferation was increased
same,development of well developed embryos,"[1]; phloroglucinol 0.4 mM + 40 μM ABA, 20 weeks",no well developed embryos were found
OC[C@H]1O[C@H](O[C@H]2[C@H](O)[C@@H](O)C(O)O[C@@H]2CO)[C@H](O)[C@@H](O)[C@@H]1O (mixture of isomers) [maltose],development of mature embryos,[2],high numbers of embryos were produced
same,average fresh weight of mature embryos,[2]; treatment B: 45 g/L maltose during the entire maturation period,about 50 mg
OC[C@H]1O[C@@](CO)(O[C@H]2O[C@H](CO)[C@@H](O)[C@H](O)[C@H]2O)[C@@H](O)[C@@H]1O [sucrose],development of mature embryos,[2],no well developed mature embryos were produced
same,size of the mature embryos,[2]; shift from maltose to medium including sucrose during the last two weeks of maturation (treatments C and D),clear increase in the size of the mature embryos
same,"reduction of the maturation period, treatment D compared to treatment B",[2]; shift to 45 g/L sucrose for the last two weeks,about four
same,average fresh weight of mature embryos,"[2]; treatment D: 45 g/L maltose, shift to 45 g/L sucrose for the last two weeks",about 120 mg per embryo
"O=C(O)c1cc(I)cc(I)c1I [TIBA, 2,3,5-tri-iodobenzoic acid]",development of mature embryos,"[1]; TIBA 5 and 50 μM + 40 μM ABA, 20 weeks","only very few, and mostly abnormal, mature embryos developed"
same,proliferation on the maturation medium,"[1]; TIBA 5 and 50 μM + 40 μM ABA, all tested cell lines",strong reduction of the proliferation
"CC(C)(Oc1ccc(Cl)cc1)C(=O)O [PCIB, p-Chlorophenoxyisobutyric acid]",number of well-formed mature embryos,[3]; 25 μM PCIB + 40 μM ABA during the entire 20 week maturation period,about 125 embryos per Petri dish
same,number of well formed mature embryos,[3]; [9],about 40 embryos per Petri dish
same,proliferation during maturation,[3]; 25 μM PCIB during the entire maturation period,strongly reduced
same,proliferation during maturation,[3]; 25 μM PCIB from week 4 to 8 of the 20 week maturation period,reduced slightly
same,number of well formed mature embryos,[4]; 25 μM PCIB + 40 μM ABA during the entire maturation period,about 15 embryos per Petri dish
same,number of well formed mature embryos,[4]; [9],about 250 embryos per Petri dish
same,proliferation during maturation,"[1]; 25 μM PCIB, ABA excluded",proliferation was reduced
same,development of mature embryos,"[1]; 25 μM PCIB, ABA excluded, 20 weeks, all tested cell lines",only few and clearly abnormal and precociously germinating embryos were developed
same,embryo morphology (abnormality),[1]; higher concentrations than 25 μM of PCIB,the embryos developed asymmetrically with one major and one minor cotyledon (FIG. 4C) or with only one cotyledon
same,development of embryos during maturation,[1]; [10],high numbers of embryos developed
same,proliferation during maturation,[1]; [10],proliferation was reduced
same,embryo morphology (abnormality),"[1]; slowly proliferating cell lines, ABA and 25 μM PCIB for longer periods than 4 weeks",embryos with only two symmetric cotyledons developed
same,embryos that developed both shoot and root on germination,[5],~100%
same,production of mature somatic embryos,[6],almost all cell lines produced high numbers of mature somatic embryos
same,production of mature somatic embryos,"[7]; cell line D.2.9, anti-auxin step (2.5 or 5.0 μM PCIB + 40 μM ABA)",a high number of mature somatic embryos are in turn produced
same,number of somatic embryos compared with no anti-auxin step,"[7]; cell lines D.4.1 and D.7.1 (A-type), 2.5 or 5.0 μM PCIB + 40 μM ABA",produced higher numbers of somatic embryos
same,proliferation during maturation,"[7]; cell lines D.4.1 and D.7.1, 2.5 or 5.0 μM PCIB + 40 μM ABA",reduce the proliferation during maturation
same,general appearance of the cultures,[8],improved
same,proliferation during maturation,[8],proliferation was clearly reduced
